Consider 1 molecule from paper PMC11811597, “Phenomics‐Based Discovery of Novel Orthosteric Choline Kinase Inhibitors” (Angewandte Chemie (International Ed. in English), 2025).

The target in the assay is T1, EHMT2 (G9a) (Homo sapiens, UniProt Q96KQ7).
T1 sequence (Q96KQ7 1-1210): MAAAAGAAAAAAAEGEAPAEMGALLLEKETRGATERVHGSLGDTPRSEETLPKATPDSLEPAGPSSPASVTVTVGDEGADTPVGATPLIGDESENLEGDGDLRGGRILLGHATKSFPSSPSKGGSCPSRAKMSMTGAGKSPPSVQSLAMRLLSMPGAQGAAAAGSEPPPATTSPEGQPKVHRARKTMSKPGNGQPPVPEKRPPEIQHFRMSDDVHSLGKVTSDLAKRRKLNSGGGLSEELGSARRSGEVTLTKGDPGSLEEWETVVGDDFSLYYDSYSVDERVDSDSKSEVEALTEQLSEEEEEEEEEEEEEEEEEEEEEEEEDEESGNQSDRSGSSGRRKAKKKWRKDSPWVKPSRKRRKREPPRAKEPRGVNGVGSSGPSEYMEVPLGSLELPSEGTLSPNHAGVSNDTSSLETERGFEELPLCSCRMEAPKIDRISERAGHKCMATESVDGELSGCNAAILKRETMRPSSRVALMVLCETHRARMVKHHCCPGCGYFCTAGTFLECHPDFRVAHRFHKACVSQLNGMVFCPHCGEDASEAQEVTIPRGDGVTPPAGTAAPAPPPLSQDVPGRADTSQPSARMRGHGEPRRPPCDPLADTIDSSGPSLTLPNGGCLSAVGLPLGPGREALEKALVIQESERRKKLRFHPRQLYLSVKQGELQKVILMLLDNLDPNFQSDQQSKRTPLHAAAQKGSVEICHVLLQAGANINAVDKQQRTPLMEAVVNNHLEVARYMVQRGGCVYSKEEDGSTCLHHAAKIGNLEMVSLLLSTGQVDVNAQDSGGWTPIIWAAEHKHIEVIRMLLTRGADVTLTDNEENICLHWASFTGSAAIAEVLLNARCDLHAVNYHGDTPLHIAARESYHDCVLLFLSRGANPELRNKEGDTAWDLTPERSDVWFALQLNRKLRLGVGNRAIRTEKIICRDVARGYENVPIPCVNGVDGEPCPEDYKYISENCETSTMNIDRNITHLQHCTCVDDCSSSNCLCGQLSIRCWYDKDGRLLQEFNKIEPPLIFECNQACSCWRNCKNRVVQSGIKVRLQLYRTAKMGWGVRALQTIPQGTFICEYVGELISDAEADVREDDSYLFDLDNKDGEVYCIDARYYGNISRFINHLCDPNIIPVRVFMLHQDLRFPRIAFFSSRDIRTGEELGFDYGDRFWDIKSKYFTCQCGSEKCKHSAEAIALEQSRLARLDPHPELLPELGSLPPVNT
Description: Competitive affinity-based chemoproteomics (UNC0965 matrix), PBMC cell extract. It is filed as binding. On the set-up: endogenous in cells. The following applies: 20 µM competitor. As to the method:
described.[2] Lysates were precleared with bead slurry (100 μL) for 30 min at 4 °C and then treated with UNC0638 or UNC0737 (20 μM) or DMSO control for 30 min at 4 °C followed by incubation with affinity matrix for 2 h at 4 °C. Affinity matrices were washed with buffer A (5 mL) and proteins eluted with 100 μL of 2x Laemmli sample buffer, 100 mM DTT, in PBS and heating for 10 min at 90 °C.
Eluents (70 µL) were diluted in 0.1 M Tris (pH 7.8) to 200 µL, reduced with 5 mM DTT for 30 min at RT, and alkylated with 20 mM iodoacetamide for 30 min at RT in the dark. Proteins were precipitated by sequential addition of MeOH (600 µL), CHCl3 (150 µL) and H2O (450 µL), pelleted (17,000 × g, 5 min), washed with further MeOH (2 × 600 µL), and re-pelleted. Air dried pellets were resuspended in 50 μL 6 M urea (pH 7.8) by vortexing and then diluted with 250 μL H2O before adding 1 µg trypsin for overnight incubation at 37 °C. The digests were acidified with FA (1% v/v final concentration), desalted using SOLA HRP SPE Cartridges (Thermo Fisher), eluted with 69% v/v MeCN, 0.1% v/v FA in H2O (600 μL) and dried in vacuo. Dried peptides were stored at -20 °C before resuspension in 2% v/v MeCN, 0.1% v/v FA in H2O (20 μL) for LC-MS/MS analysis.
LC-MS/MS Data Acquisition
Digested samples were analysed by nano-UPLC–MS/MS using a Dionex Ultimate 3000 nano UPLC fitted with an EASY spray column (75 μm × 500 mm, 2 μm particle size, Thermo Scientific), coupled to an Orbitrap Q Exactive instrument. […]
Raw data was processed using MaxQuant[3] version 2.0.1.0 and the reference complete human proteome FASTA file (UniProt, downloaded 05.08.21). Label Free Quantification (LFQ) and Match Between Runs were selected; Cysteine carbamidomethylation was selected as a fixed modification, and methionine oxidation and asparagine deamidation as variable modifications. Default settings for identification and quantification were used. […]
mode selected for both identification and quantification of proteins (razor peptides are uniquely assigned to protein groups and not to individual proteins).

Take `COc1cc2c(NC3CCN(C(C)C)CC3)nc(C3CCCCC3)nc2cc1OCCCN1CCCC1` [UNC0638]: the “EHMT2 (G9a) binding to the matrix” value is on record as “reduced binding to the matrix”.
